Experimental findings from ChEMBL document CHEMBL1201862, “PubChem BioAssay data set” (2004) are described below.

What all share (test): NCI anticancer screen, dose series, 48 h
Experiment [1] has as its system A498.
For experiment [2], the system named is A549.
Experiment [3] relates to ACHN.
The subject of experiment [4] is CCRF-CEM.
In experiment [5] the test system is HOP-92.
Experiment [6] deals with Hs-578T.
For experiment [7], the system named is MDA-N.
Experiment [8] concerns NCI-H23.
Experiment [9] concerns NCI-H522.
Experiment [10] has as its system NCI/ADR-RES.
Experiment [11] has as its system OVCAR-8.
Experiment [12] relates to SF-539.
Experiment [13] has as its system SK-MEL-5.
Experiment [14] relates to SNB-19.
Experiment [15] concerns SNB-75.
In experiment [16] the test system is SR.
Experiment [17] has as its system TK-10.
In experiment [18] the test system is UACC-62.
Experiment [19] has as its system HCC 2998.

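Each compound was tested at five concentrations against cells in 96-well plates for 48 hours. Abbreviation: GI50, concentration required for 50% inhibition of growth.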 Calls of active or inactive are those of the source. Rule as the data show it: active = GI50 up to about 1.1 µM and inactive = higher.

`Clc1nc(Nc2nc3ccccc3[nH]2)nc(Cl)c1-c1ccccc1`: the GI50 is 21.5 µM (inactive) in [1]; 34.7 µM (inactive) in [2]; 15.8 µM (inactive) in experiment [3]; 19.5 µM (inactive) in experiment [4]; 8.65 µM (inactive) in experiment [5]; 21.5 µM (inactive) in experiment [6]. In addition, the GI50 in experiment [7] is 10.3 µM (inactive); in experiment [8] it was 17.3 µM (inactive); in experiment [9] it was 17.3 µM (inactive); in experiment [10], 27.7 µM (inactive); in experiment [11], 27.7 µM (inactive); in experiment [12] it was 18.1 µM (inactive). For the same compound, the GI50 in experiment [13] is 20.9 µM (inactive); in experiment [14], 36.1 µM (inactive); in experiment [15], 9.38 µM (inactive); in experiment [16], 29.1 µM (inactive); in [17], 39.4 µM (inactive); in experiment [18] it was 18.1 µM (inactive).
As to `CC(=O)OCOC(=O)CN(CC(=O)OCOC(C)=O)Cc1cc2c(cc1OC(C)=O)Oc1cc(OC(C)=O)c(CN(CC(=O)OCOC(C)=O)CC(=O)OCOC(C)=O)cc1C21OC(=O)c2ccccc21`, the GI50 in experiment [1] was 1.25 µM (inactive); in experiment [2], 0.953 µM (active); in [3] it was 1.38 µM (inactive); in experiment [4] it was 0.11 µM (active); in [5] it was 1.05 µM (active); in [6], 0.345 µM (active). Also, the GI50 is 0.309 µM (active) in experiment [7]; 0.481 µM (active) in [8]; 0.237 µM (active) in experiment [9]; 11 µM (inactive) in experiment [10]; 1.15 µM (inactive) in experiment [11]; 0.255 µM (active) in experiment [12]. The GI50 was 0.953 µM (active) in experiment [13]; 1.27 µM (inactive) in [14]; 1.36 µM (inactive) in experiment [15]; 0.016 µM (active) in [16]; 0.741 µM (active) in experiment [17]; 0.232 µM (active) in experiment [18].
Take `Cc1cccc(C)c1NC(=O)C(Cc1c[nH]c2ccccc12)NC(=O)OCc1ccccc1` (stereo not given): the GI50 in [1] is 21.2 µM (inactive); in experiment [2], 14.6 µM (inactive); in experiment [3] it was 19.8 µM (inactive); in experiment [4], 17.8 µM (inactive); in [5], 22.4 µM (inactive); in [6] it was 33.1 µM (inactive). Moreover, the GI50 in experiment [7] was 15.7 µM (inactive); in experiment [8] it was 24 µM (inactive); in experiment [9], 20.1 µM (inactive); in experiment [10], 14.4 µM (inactive); in [11], 27.3 µM (inactive); in experiment [12] it was 20.2 µM (inactive). In addition, the GI50 is 13.5 µM (inactive) in experiment [13]; 14.9 µM (inactive) in [14]; 18.7 µM (inactive) in experiment [15]; 22.5 µM (inactive) in [16]; 19.2 µM (inactive) in [17]; 16.6 µM (inactive) in [18].
`Cc1nn(C(=O)c2ccncc2)c2c1C(c1ccccc1)SC(=N)N2` (stereo not given): the GI50 in experiment [2], in experiment [3], in [4], in experiment [19], in experiment [5] and in experiment [6] was > 10 µM (inactive) each time. In addition, the GI50 in [7], in experiment [8], in experiment [9], in experiment [10], in experiment [11] and in experiment [12] was > 10 µM (inactive) each time. Further, the GI50 in [13], in experiment [14], in experiment [15], in experiment [16], in experiment [17] and in experiment [18] was > 10 µM (inactive) throughout.
`COc1cc(OC)c(OC)cc1/C=C/c1ccc2ccccc2n1`: the GI50 was > 10 µM (inactive) in experiment [2]; > 10 µM (inactive) in experiment [3]; 6.17 µM (inactive) in [4]; > 10 µM (inactive) in experiment [19]; 5.57 µM (inactive) in [5]; 3.44 µM (inactive) in [6]. Further, the GI50 in [7] was 8.07 µM (inactive); in experiment [8] it was 2.89 µM (inactive); in [9], 5.41 µM (inactive); in experiment [10] it was 7.6 µM (inactive); in experiment [11] it was > 10 µM (inactive); in experiment [12], 3.53 µM (inactive). The GI50 in [13] was 8.77 µM (inactive); in experiment [15], 9.71 µM (inactive); in experiment [16], 3.57 µM (inactive); in [17], > 10 µM (inactive); in experiment [18], 6.44 µM (inactive).
Turning to `CNN1C(=O)c2c(C)c(C)c(C#N)c(N)c2C1=O`, the GI50 in experiment [2], in [3], in experiment [4], in [19], in experiment [5] and in experiment [6] was > 100 µM (inactive) each time. Further, the GI50 in experiment [7], in experiment [9], in experiment [10], in [11], in [12] and in experiment [13] was > 100 µM (inactive) each time. In addition, the GI50 in experiment [14] was > 100 µM (inactive); in [15], 83.2 µM (inactive); in experiment [16] it was > 100 µM (inactive); in [17], > 100 µM (inactive); in experiment [18], > 100 µM (inactive).
Take `CC(C)=Cc1cc(C)c2c(O)cc(C)c3c2c1C(C)=C(O)C3=O`: the GI50 in experiment [1] is 22.9 µM (inactive); in experiment [2] it was 24.8 µM (inactive); in [3], 25.5 µM (inactive); in [4], < 0.01 µM (active); in experiment [5], 7.85 µM (inactive); in experiment [6], 27 µM (inactive). Further, the GI50 is 33 µM (inactive) in experiment [7]; 23.4 µM (inactive) in [8]; 18.3 µM (inactive) in experiment [9]; 30.1 µM (inactive) in experiment [10]; 38.1 µM (inactive) in experiment [11]; 28.1 µM (inactive) in experiment [12]. The GI50 in experiment [13] was 17.1 µM (inactive); in [14], 47.4 µM (inactive); in experiment [16] it was 35.3 µM (inactive); in experiment [18], 20.5 µM (inactive).
Take `O=C(O)C1C2C=CC(O2)C1C(=O)NCc1cccnc1` (stereo not given): the GI50 in experiment [1] was > 100 µM (inactive); in experiment [2], > 100 µM (inactive); in experiment [3], > 100 µM (inactive); in [4], > 100 µM (inactive); in [5], > 100 µM (inactive); in experiment [6], 51.8 µM (inactive). Further, the GI50 in [7], in [8], in [9], in experiment [10], in experiment [11] and in experiment [12] was > 100 µM (inactive) each time. The GI50 in [13], in [14], in [15], in [16], in experiment [17] and in experiment [18] was > 100 µM (inactive) in each case.
Take `CNc1cc(N)ccc1C(=O)N1CCC[C@H]1CO`: the GI50 in [1], in experiment [2], in experiment [3], in experiment [5], in experiment [6] and in [7] was > 100 µM (inactive) each time. In addition, the GI50 in [9], in experiment [10], in experiment [11], in experiment [12], in experiment [14] and in experiment [15] was > 100 µM (inactive) each time. Moreover, the GI50 in experiment [16], in experiment [17] and in [18] was > 100 µM (inactive) in each case.
Regarding `CCOC(=O)c1nc2ccc(C(F)(F)F)cc2[nH]c1=O`, the GI50 in experiment [1], in experiment [2], in experiment [3], in experiment [4], in [19] and in [5] was > 100 µM (inactive) throughout. For the same compound, the GI50 is 82 µM (inactive) in experiment [6]; > 100 µM (inactive) in [7]; > 100 µM (inactive) in [8]; > 100 µM (inactive) in [10]; > 100 µM (inactive) in experiment [11]; > 100 µM (inactive) in [12]. In addition, the GI50 in [13], in [14], in experiment [16], in experiment [17] and in experiment [18] was > 100 µM (inactive) each time.
As for `CCCCOc1ccc(S(=O)(=O)N/C(=N\O)Nc2ccc(Cl)cc2)cc1`, the GI50 in [1] was 13.4 µM (inactive); in experiment [2], 16.1 µM (inactive); in experiment [3], 14.9 µM (inactive); in [4], 19 µM (inactive); in experiment [19], 14.3 µM (inactive); in [5], 4.79 µM (inactive). The GI50 in [6] was 23.2 µM (inactive); in experiment [7] it was 17.7 µM (inactive); in experiment [8], 14.7 µM (inactive); in [9], 14.7 µM (inactive); in experiment [10], 15.8 µM (inactive); in [11], 17.9 µM (inactive). Also, the GI50 in [12] was 20.8 µM (inactive); in [13] it was 14.3 µM (inactive); in [14], 15.2 µM (inactive); in experiment [16], 11 µM (inactive); in experiment [17] it was 15 µM (inactive); in experiment [18] it was 15.2 µM (inactive).
